# What was measured:
# [1] = tested on: PNT-2 human normal prostate epithelium cells; assay: Cytotoxicity, LDH assay, PNT-2 cells; assay type: cell-based
# Description: (§1) Cytotoxic activity was tested on human cancer and normal cells, grouped in three panels, namely: prostate, skin and gastrointestinal. The prostate panel consisted of prostate cancer cell lines Du145 (ATCC HTB-81) and PC3 (ATCC CRL-1435), and prostate epithelial cells PNT-2 (ECACC 95012613). Melanoma cell lines A375 (ATCC CRL-1619) and HTB140 (ATCC Hs 294T) together with skin keratinocytes HaCaT (obtained as a kind gift of prof. Marta Michalik, Department of Cell Biology, Jagiellonian University, Kraków, Poland) were included into the skin panel. The gastrointestinal panel of cells comprised colon cancer cell lines Caco-2 (ATCC HTB-37) and HT29 (ATCC HTB-38). Du145 cells were grown in Modified Eagle’s Medium with low (1.0 g/L) glucose concentration, HT29, PC3 and PNT-2 cells in Dulbecco’s Modified Eagle’s Media: F12 HAM Nutrient Mixture, Caco-2 in Modified Eagle’s Medium with NEAA (no-essential amino acids) while melanoma cells and keratinocytes were maintained in Modified Eagle’s Medium with high (4.5 g/L) glucose concentration. The culture media (all supplied by Sigma-Aldrich Co.; St. Louis, MO, USA) contained antibiotics and 10% fetal bovine serum (FBS). All cultures were maintained at 37 °C, in a humidified, 5% CO2 containing, atmosphere.
# (§2) The examined triterpenes were diluted in the culture media from freshly made stock solutions in MeOH (10 mg/mL) to the working concentrations (from 0 to 100 μg/mL).
# (§3) Cell viability was determined as it was described previously. Cells suspended in the nutrient medium were transferred into 96-well microtiter plates (density 1.5 × 10^4 per well), and preincubated for 24 h (37 °C, 5% CO2). Then, the culture medium was replaced with the medium containing different concentrations of 1 or 2 (1–100 μg/mL). After 24 h of incubation, viability of the cells was determined using colorimetric lactate dehydrogenase (LDH) assay, in comparison to the controls to which corresponding aliquots of MeOH diluted with culture media were added. Cells grown in the medium without the tested compounds were used as control I (negative) and the positive control (control II) was obtained by incubation of the cells in the medium containing 1% Triton X-100. LDH released from the damaged cells into the cell culture medium was quantified by measuring the absorbance at 490 nm using Synergy II Biotek (BioTek Instruments, Winooski, VT, USA) microplate reader. Cytotoxicities of the examined compounds were calculated as follows: [(absorbance of the tested sample − absorbance of control I)/(absorbance of control II − absorbance of control I)] × 100. Results were means of three independent measurements (± SD). Doxorubicin (Ebewe Pharma GmbH., Unterach, Austria) was used as a reference cytostatic drug. The IC50 values were determined by plotting the percentage viability of the cells versus concentration and the adequate calculations made using AAT Bioquest website program (https://www.aatbio.com/tools/ic50-calculator, accessed on 29 October 2021).
# [2] = Cytotoxicity, LDH assay, PNT-2 cells; assay type: cell-based, human; settings: human, 24 h, mean ± SD of three, read-out: Cell viability PNT-2
# Description: as §1, §2, §3
# [3] = Cytotoxicity, LDH assay, HTB140 cells; assay type: cell-based, human; settings: human, HTB140 melanoma cells, 24 h, mean ± SD of three, read-out: Cell viability HTB140
# Description: as §1, §2, §3
# [4] = tested on: PC3 human prostate adenocarcinoma cells; assay: Cytotoxicity, LDH assay, PC3 cells; assay type: cell-based; settings: 24 h treatment; for IC50: Homo sapiens, PC-3, 24 h
# Description: as §1, §2, §3
# [5] = Cytotoxicity, LDH assay, PC3 cells; assay type: cell-based, human; settings: human, PC3 prostate adenocarcinoma cells, 24 h, mean ± SD of three, read-out: Cell viability PC3
# Description: as §1, §2, §3
# [6] = tested on: A375 human malignant melanoma cells; assay: Cytotoxicity, LDH assay, A375 cells; assay type: cell-based; settings: Homo sapiens, A-375; 24 h treatment, 5–100 μg/mL
# Description: as §1, §2, §3
# [7] = Cytotoxicity, LDH assay, A375 cells; assay type: cell-based, human; settings: human, A375 malignant melanoma cells, 24 h, mean ± SD of three, read-out: Cell viability A375
# Description: as §1, §2, §3
# [8] = tested on: HT29 human colon adenocarcinoma cells; assay: Cytotoxicity, LDH assay, HT29 cells; assay type: cell-based; settings: Homo sapiens, HT-29; 24 h treatment, 5–100 μg/mL
# Description: as §1, §2, §3
# [9] = Cytotoxicity, LDH assay, HT29 cells; assay type: cell-based, human; settings: human, HT29 colon adenocarcinoma cells, 24 h, mean ± SD of three, read-out: Cell viability HT29
# Description: as §1, §2, §3
# [10] = tested on: HaCaT human immortalized keratinocytes; assay: Cytotoxicity, LDH assay, HaCaT cells; assay type: cell-based; settings: Homo sapiens, HaCaT; 24 h treatment, 5–100 μg/mL
# Description: as §1, §2, §3
# [11] = Cytotoxicity, LDH assay, HaCaT cells; assay type: cell-based, human; settings: human, 24 h, mean ± SD of three, read-out: Cell viability HaCaT
# Description: as §1, §2, §3
# [12] = tested on: DU145 human prostate carcinoma cells; assay: Cytotoxicity, LDH assay, DU145 cells; assay type: cell-based; settings: 24 h treatment; for IC50: Homo sapiens, DU-145, 24 h
# Description: as §1, §2, §3
# [13] = Cytotoxicity, LDH assay, DU145 cells; assay type: cell-based, human; settings: human, DU145 prostate carcinoma cells, 24 h, mean ± SD of three, read-out: Cell viability DU145
# Description: as §1, §2, §3
smiles,measurement,setting,value
"CCC(C)C(=O)OC1C=C2C3C(C)C(C)(O)CC(OC(C)=O)C3(C)CCC2(C)C2(C)CC(OC(C)=O)C3C(C)(C)C(O)C(OC(C)=O)CC3(C)C12 (stereo not drawn) [Compound 1, 2α,6β,22α-triacetoxy-11α-(2-methylbutyryloxy)-urs-12-ene-3α,20β-diol]",Reduction of viability of PNT-2 cells,[1]; 100 µg/mL,41%
same,IC50,"[1]; Homo sapiens, PNT2, 24 h treatment, 5–100 μg/mL",> 100 µg/mL
same,"viability at 24 h, 10 μg/mL","[2]; PNT-2 normal prostate epithelium cells, 10 μg/mL",96.77 ± 0.6%
same,"viability at 24 h, 100 μg/mL","[2]; PNT-2 normal prostate epithelium cells, 100 μg/mL",59 ± 2.2%
same,"viability at 24 h, 5 μg/mL","[2]; PNT-2 prostate epithelial cells, 5 μg/mL",96.61 ± 0.53%
same,"viability at 24 h, 20 μg/mL","[2]; PNT-2 prostate epithelial cells, 20 μg/mL",94.59 ± 0.9%
same,"viability at 24 h, 30 μg/mL","[2]; PNT-2 prostate epithelial cells, 30 μg/mL",91 ± 1.07%
same,"viability at 24 h, 40 μg/mL","[2]; PNT-2 prostate epithelial cells, 40 μg/mL",83 ± 1.41%
same,"viability at 24 h, 50 μg/mL","[2]; PNT-2 prostate epithelial cells, 50 μg/mL",70.7 ± 2.58%
same,"viability at 24 h, 5 μg/mL",[3]; 5 μg/mL,96.2 ± 1.12%
same,"viability at 24 h, 10 μg/mL",[3]; 10 μg/mL,93.82 ± 0.73%
same,"viability at 24 h, 20 μg/mL",[3]; 20 μg/mL,87.1 ± 2.09%
same,"viability at 24 h, 30 μg/mL",[3]; 30 μg/mL,78.9 ± 2.08%
same,"viability at 24 h, 40 μg/mL",[3]; 40 μg/mL,68.4 ± 2.17%
same,"viability at 24 h, 50 μg/mL",[3]; 50 μg/mL,59.5 ± 1.4%
same,"viability at 24 h, 100 μg/mL",[3]; 100 μg/mL,46.6 ± 2.09%
same,IC50 PC3,[4]; 5–100 μg/mL,41.64 µg/mL
same,IC50,[4]; 5–100 μg/mL,41.6 µg/mL
same,IC50,"[4]; value in brackets, footnote d",58.1 µM
same,"viability at 24 h, 5 μg/mL",[5]; 5 μg/mL,96.2 ± 1.04%
same,"viability at 24 h, 10 μg/mL",[5]; 10 μg/mL,90.7 ± 0.93%
same,"viability at 24 h, 20 μg/mL",[5]; 20 μg/mL,83.9 ± 1.67%
same,"viability at 24 h, 30 μg/mL",[5]; 30 μg/mL,74.8 ± 1.17%
same,"viability at 24 h, 40 μg/mL",[5]; 40 μg/mL,62.6 ± 1.36%
same,"viability at 24 h, 50 μg/mL",[5]; 50 μg/mL,45.7 ± 1.85%
same,"viability at 24 h, 100 μg/mL",[5]; 100 μg/mL,28.1 ± 2.31%
same,IC50,[6],> 100 µg/mL
same,"viability at 24 h, 5 μg/mL",[7]; 5 μg/mL,97.23 ± 0.57%
same,"viability at 24 h, 10 μg/mL",[7]; 10 μg/mL,96.44 ± 0.92%
same,"viability at 24 h, 20 μg/mL",[7]; 20 μg/mL,92.8 ± 1.11%
same,"viability at 24 h, 30 μg/mL",[7]; 30 μg/mL,87.2 ± 2.17%
same,"viability at 24 h, 40 μg/mL",[7]; 40 μg/mL,79.8 ± 2.02%
same,"viability at 24 h, 50 μg/mL",[7]; 50 μg/mL,70.2 ± 1.39%
same,"viability at 24 h, 100 μg/mL",[7]; 100 μg/mL,62.6 ± 2.03%
same,IC50,[8],> 100 µg/mL
same,"viability at 24 h, 5 μg/mL",[9]; 5 μg/mL,97.04 ± 0.42%
same,"viability at 24 h, 10 μg/mL",[9]; 10 μg/mL,95.49 ± 0.82%
same,"viability at 24 h, 20 μg/mL",[9]; 20 μg/mL,90.9 ± 1.37%
same,"viability at 24 h, 30 μg/mL",[9]; 30 μg/mL,81.5 ± 1.89%
same,"viability at 24 h, 40 μg/mL",[9]; 40 μg/mL,72.5 ± 1.94%
same,"viability at 24 h, 50 μg/mL",[9]; 50 μg/mL,64.8 ± 1.69%
same,"viability at 24 h, 100 μg/mL",[9]; 100 μg/mL,55.2 ± 1.73%
same,IC50,[10],> 100 µg/mL
same,"viability at 24 h, 100 μg/mL","[11]; HaCaT immortalized keratinocytes, 100 μg/mL",56.8 ± 2.2%
same,"viability at 24 h, 5 μg/mL","[11]; HaCaT keratinocytes, 5 μg/mL",96.52 ± 0.8%
same,"viability at 24 h, 10 μg/mL","[11]; HaCaT keratinocytes, 10 μg/mL",94.9 ± 1%
same,"viability at 24 h, 20 μg/mL","[11]; HaCaT keratinocytes, 20 μg/mL",88.37 ± 0.47%
same,"viability at 24 h, 30 μg/mL","[11]; HaCaT keratinocytes, 30 μg/mL",81.2 ± 1.77%
same,"viability at 24 h, 40 μg/mL","[11]; HaCaT keratinocytes, 40 μg/mL",74 ± 1.72%
same,"viability at 24 h, 50 μg/mL","[11]; HaCaT keratinocytes, 50 μg/mL",65.7 ± 1.22%
same,IC50 DU145,[12]; 5–100 μg/mL,35.83 µg/mL
same,IC50,[12]; 5–100 μg/mL,35.8 µg/mL
same,IC50,"[12]; value in brackets, footnote d",50 µM
same,"viability at 24 h, 5 μg/mL",[13]; 5 μg/mL,93.19 ± 0.93%
same,"viability at 24 h, 10 μg/mL",[13]; 10 μg/mL,83.1 ± 1.96%
same,"viability at 24 h, 20 μg/mL",[13]; 20 μg/mL,70.4 ± 1.69%
same,"viability at 24 h, 30 μg/mL",[13]; 30 μg/mL,57.2 ± 2.2%
same,"viability at 24 h, 40 μg/mL",[13]; 40 μg/mL,41.3 ± 1.91%
same,"viability at 24 h, 50 μg/mL",[13]; 50 μg/mL,27.2 ± 2.28%
same,"viability at 24 h, 100 μg/mL",[13]; 100 μg/mL,9.87 ± 1.59%
